Laboratory results published in PubChem BioAssay (NCI).
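48-hour exposure; five concentrations; linearly interpolated endpoints. TGI marks complete inhibition of growth.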

Legend:
Assay in all cases: NCI-60 cell line screen, 48 h
HCT-116 colon = test system: HCT-116 colon
SF-295 CNS = test system: SF-295 CNS
SNB-75 CNS = test system: SNB-75 CNS
MDA-N = test system: MDA-N
CCRF-CEM leukemia = test system: CCRF-CEM leukemia
UACC-62 melanoma = test system: UACC-62 melanoma
SK-MEL-2 melanoma = test system: SK-MEL-2 melanoma
HCT-15 colon = test system: HCT-15 colon
NCI-H23 lung = test system: NCI-H23 lung
SK-MEL-5 melanoma = test system: SK-MEL-5 melanoma
MDA-MB-231 breast = test system: MDA-MB-231 breast
HOP-92 NSCLC = test system: HOP-92 NSCLC
RXF 393 renal = test system: RXF 393 renal
SN12C renal = test system: SN12C renal
A549 NSCLC = test system: A549 NSCLC
NCI/ADR-RES ovarian = test system: NCI/ADR-RES ovarian
ACHN renal = test system: ACHN renal
MALME-3M melanoma = test system: MALME-3M melanoma
A498 renal = test system: A498 renal
T-47D breast = test system: T-47D breast

Structure (SMILES)	TGI (HCT-116 colon) [µM]	TGI (SF-295 CNS) [µM]	TGI (SNB-75 CNS) [µM]	TGI (MDA-N) [µM]	TGI (CCRF-CEM leukemia) [µM]	TGI (UACC-62 melanoma) [µM]	TGI (SK-MEL-2 melanoma) [µM]	TGI (HCT-15 colon) [µM]	TGI (NCI-H23 lung) [µM]	TGI (SK-MEL-5 melanoma) [µM]	TGI (MDA-MB-231 breast) [µM]	TGI (HOP-92 NSCLC) [µM]	TGI (RXF 393 renal) [µM]	TGI (SN12C renal) [µM]	TGI (A549 NSCLC) [µM]	TGI (NCI/ADR-RES ovarian) [µM]	TGI (ACHN renal) [µM]	TGI (MALME-3M melanoma) [µM]	TGI (A498 renal) [µM]	TGI (T-47D breast) [µM]
COC(=O)C(C)(C)OCc1ccc(C2NC(=O)N(c3cccc(Cl)c3)C(=O)N2c2cccc(Cl)c2)cc1 (centres undefined)	> 100	> 100	6.95	> 100	> 100	> 100	> 100	> 100	22.1	52.8	> 100	69.7	> 100	> 100	> 100	> 100	> 100	–	–	–
CCOc1ccc(NC(=O)C2=C(C)NC(C)=C(C(=O)Nc3ccc(OCC)cc3)C2c2ccc(O)c(OC)c2)cc1	–	> 100	59.2	–	> 100	–	> 100	–	> 100	> 100	–	53.9	> 100	> 100	> 100	–	> 100	> 100	66.7	–
CC(=O)O[C@]12CCCCC1C1(O)C(O)CCCCC12 (some centres undefined)	> 100	> 100	> 100	–	> 100	> 100	> 100	> 100	> 100	> 100	–	–	> 100	> 100	> 100	–	> 100	> 100	–	–
C#CCNC(=O)NCCCC(NC(C)=O)C(=O)NCc1ccccc1 (centres undefined)	> 100	> 100	> 100	–	> 100	> 100	–	> 100	> 100	> 100	–	> 100	> 100	> 100	> 100	–	> 100	> 100	> 100	–
Nc1ccc2nc(NCc3ccc(F)cc3)cnc2c1	> 100	> 100	> 100	–	> 100	> 100	> 100	> 100	> 100	> 100	–	–	> 100	> 100	> 100	–	> 100	> 100	–	–
CCCOC(=O)C1CCC(=O)N1C(=O)C(C)Cl (centres undefined)	> 100	> 100	> 100	–	> 100	> 100	> 100	> 100	> 100	> 100	–	> 100	–	> 100	> 100	–	> 100	> 100	> 100	–
O=C1[C@@H]2C(c3ccc(Cl)cc3Cl)=NO[C@@H]2C(=O)N1c1ccc(Cc2ccc(N3C(=O)[C@H]4C(c5ccc(Cl)cc5Cl)=NO[C@H]4C3=O)cc2)cc1	–	> 100	> 100	–	> 100	> 100	> 100	> 100	> 100	> 100	–	41.4	68.8	> 100	> 100	–	–	> 100	> 100	–
Cc1ccc(O)c(C(c2ccc([N+](=O)[O-])cc2)c2cc(C)ccc2O)c1	40.6	31.3	15.5	–	56.9	21.7	23.9	23.8	21.5	> 100	26.2	28.7	26	27.3	25.6	28.7	19.2	–	43	34.7
N#CCCN(c1ccc(/C=C2\N=C(Cc3ccccc3)OC2=O)cc1)S(=O)(=O)c1ccccc1	> 100	> 100	> 100	–	> 100	> 100	> 100	> 100	> 100	> 100	–	–	> 100	> 100	> 100	–	> 100	> 100	> 100	–
COc1ccccc1/C=C(\C#N)C(=O)c1ccccc1	> 100	> 100	–	–	> 100	> 100	> 100	> 100	> 100	> 100	–	> 100	–	> 100	> 100	–	> 100	> 100	> 100	–
CN(C)CCC(O)(c1ccccc1)C(O)(CCN(C)C)c1ccccc1 (centres undefined)	–	> 100	> 100	–	> 100	> 100	> 100	> 100	> 100	> 100	–	–	–	> 100	> 100	–	> 100	32.6	> 100	–
O=S(=O)(N/N=C1\CC2CCC1C2)c1ccccc1 (centres undefined)	> 100	> 100	> 100	> 100	> 100	> 100	> 100	> 100	> 100	> 100	–	> 100	–	> 100	> 100	> 100	> 100	> 100	–	–
CCOC(=O)[C@]12C(=C(c3ccccc3)O[C@H]3C=CCC[C@H]31)C(=O)C(=O)N2c1ccccc1	> 100	> 100	–	–	–	> 100	> 100	> 100	> 100	> 100	> 100	–	> 100	> 100	> 100	> 100	> 100	> 100	> 100	> 100
CCOCN1COCN=C1NC#N	> 100	> 100	> 100	–	–	> 100	> 100	> 100	> 100	> 100	–	> 100	34.7	> 100	> 100	–	> 100	> 100	> 100	–
Nc1nc(NCCO)c(N=O)c(=O)[nH]1	> 100	> 100	> 100	–	> 100	> 100	> 100	> 100	–	> 100	–	> 100	> 100	> 100	> 100	–	> 100	> 100	> 100	–
Cc1ccccc1C1OC(=O)c2ccccc21 (centres undefined)	> 100	–	> 100	–	> 100	> 100	> 100	> 100	> 100	> 100	–	–	> 100	> 100	> 100	–	> 100	> 100	> 100	–
O=C1NC(=O)C(CC(C(=O)C(=O)Nc2ccccc2Cl)C(=O)c2ccc3ccccc3c2)C(=O)N1 (centres undefined)	> 100	> 100	> 100	> 100	> 100	> 100	> 100	> 100	> 100	> 100	> 100	> 100	> 100	> 100	> 100	> 100	> 100	–	–	–
CCOc1ccc(NC(=O)C(=O)NO)cc1	> 100	> 100	> 100	–	> 100	> 100	> 100	> 100	> 100	> 100	–	> 100	> 100	> 100	> 100	–	> 100	> 100	> 100	–
CCCCCCCc1cc(OC(=O)c2c(C)cc(OC)cc2O)cc(O)c1C(=O)O	–	50	36.1	–	78.6	43.7	36.9	–	43.1	40.7	–	41.8	52.2	82.9	83.9	–	62.8	37.6	38	–
COC(=O)C1CCC(Nc2ccc(C)cc2C)=N1 (centres undefined)	> 100	> 100	> 100	–	> 100	> 100	> 100	> 100	> 100	> 100	–	> 100	–	> 100	> 100	–	> 100	> 100	> 100	–
O=C1N(c2ccccc2)C2(c3ccccc3)CC3CCCC13S2 (centres undefined)	> 100	> 100	–	–	> 100	> 100	80.9	> 100	> 100	> 100	> 100	> 100	> 100	> 100	> 100	> 100	> 100	> 100	> 100	> 100
CN(C)c1nc2oc(-c3ccccc3)c(-c3ccccc3)c2c2nncn12	> 100	> 100	> 100	–	> 100	> 100	–	> 100	> 100	–	> 100	> 100	> 100	> 100	> 100	> 100	> 100	–	> 100	> 100
NC(=O)c1cccc(C2OC(COP(=O)(O)O)C(O)C2O)c1 (centres undefined)	> 50	> 50	> 50	–	> 50	> 50	> 50	> 50	> 50	> 50	–	–	> 50	> 50	> 50	–	> 50	> 50	> 50	–
C=[N+](CNC(=O)CNC(=O)C(Cc1ccc([N+](=O)[O-])cc1)NC(=O)OC(C)(C)C)C(=O)CNC(=O)C(Cc1ccc([N+](=O)[O-])cc1)NC(=O)OC(C)(C)C (centres undefined)	> 100	> 100	> 100	–	–	50.1	–	> 100	> 100	> 100	59	> 100	> 100	> 100	> 100	> 100	> 100	> 100	> 100	–
COP(=O)(Cc1ccc(/C=C/C#N)o1)OC	> 100	–	> 100	–	> 100	> 100	–	> 100	> 100	–	> 100	> 100	> 100	–	> 100	> 100	–	> 100	> 100	> 100
COC(=O)[C@@H]1C=C[C@H](OC2OC(COC(C)=O)C(OC(C)=O)C(OC(C)=O)C2OC(C)=O)n2c(=O)c3ccccc3c(=O)n21 (some centres undefined)	22.8	53.9	20.6	–	24.9	23	24.5	22.7	39.9	30.2	–	23.7	20.1	–	47.4	56.7	24.1	39.6	32.6	20.9
N#Cc1c2c(c(Nc3cccc(C(F)(F)F)c3)n3c1nc1ccccc13)CCC2	> 100	> 100	> 100	–	–	–	–	> 100	> 100	> 100	> 100	> 100	> 100	> 100	–	> 100	> 100	> 100	> 100	> 100
Nc1ccc(-c2cssc2=S)cc1	> 100	> 100	–	> 100	–	94.9	77	> 100	–	> 100	> 100	> 100	> 100	94.6	> 100	> 100	> 100	> 100	–	–
CC(C)CC[C@H](O)[C@@H](C)[C@H]1[C@@H](OC2OC(C)C(O)C(O)C2O)C[C@H]2[C@@H]3CC=C4C[C@@H](O)CC[C@]4(C)[C@H]3[C@@H](O)C[C@]12C (some centres undefined)	> 100	0.222	59.1	–	–	3.21	> 100	> 100	> 100	> 58	> 100	6.7	> 100	> 100	> 100	> 100	> 100	> 68.9	> 34.9	> 100
